pEC50: −log10 of the molar value.
Assays:
[1] = system: Hepatitis C virus; assay: Antiviral activity against Hepatitis C virus genotype 1b infected in human Huh7ET cells expressing LucUbiNeo fusion protein measured after 2 days by luciferase Bright-Glo assay; format: functional, organism-based, Hepacivirus hominis; conditions: Huh-7, 48 h
[2] = Cytotoxicity against human Huh7ET cells expressing LucUbiNeo fusion protein measured after 4 hrs at 37 degC by MTT assay; format: cell-based, Huh-7
[3] = Selectivity index, ratio of CC50 for human Huh7ET cells expressing LucUbiNeo fusion protein to EC50 for Hepatitis C virus genotype 1b infected in human […] cells; format: toxicity, cell-based; conditions: read-out: Ratio CC50/EC50
[4] = system: Hepatitis C virus; assay: Antiviral activity against HCV subtype 1b by replicon assay; format: functional, organism-based, Hepacivirus hominis; conditions: genotype 1b

Row | pEC50 [1] | SMILES | CC50 at 4 h [2] [µM] | selectivity ratio [3] | pEC50 [4]
1 | 4.66 | COCCOc1nc(N)nc2c1CC(c1c(Cl)cccc1Cl)C(=O)N2 (configuration not stated) | 65 | – | –
2 | 5.02 | O=C1Nc2nc(NCc3ccccc3)[nH]c(=O)c2CC1c1c(Cl)cccc1Cl (configuration not stated) | 69 | – | –
3 | 6.52 | Cn1c(=O)c(-c2c(Br)cccc2Br)cc2c(N)nc(Nc3ccccc3)nc21 | 0.8 | – | –
4 | 5.85 | CCCn1c(=O)c(-c2c(Cl)cccc2Cl)cc2c(N)nc(Nc3ccccc3)nc21 | 181 | – | –
5 | 7.47 | O=c1[nH]c2nc(Nc3ccccc3)[nH]c(=O)c2cc1-c1ccc(F)cc1 | 13.5 | 397 | –
6 | 5.49 | CCCCCNc1nc(N)nc2[nH]c(=O)c(-c3c(Cl)cccc3Cl)cc12 | 11 | – | –
7 | 4.98 | Cn1c(=O)c(-c2ccc(F)cc2)cc2c(N3CCCC3)nc(N)nc21 | 111 | – | –
8 | 6.80 | Cn1c(=O)c(-c2c(F)cccc2F)cc2c(N)nc(Nc3ccccc3)nc21 | 10.4 | – | –
9 | 4.98 | CCCOCCOc1nc(N)nc2c1cc(-c1c(Cl)cccc1Cl)c(=O)n2C | 50.1 | – | –
10 | 6.31 | Nc1nc(Nc2ccccc2)nc2[nH]c(=O)c(-c3ccccc3)cc12 | 13.8 | – | –
11 | 5.03 | COc1ccc(Nc2nc3[nH]c(=O)c(-c4ccc(F)cc4)cc3c(=O)[nH]2)cc1 | 46 | – | –
12 | 5.89 | O=C1Nc2nc(Nc3ccccc3)nc(On3nnc4ccccc43)c2CC1c1ccc(F)cc1 (configuration not stated) | 12.2 | – | –
13 | 5.64 | Nc1nc(Nc2ccccc2)nc2c1cc(-c1c(Cl)cccc1Cl)c(=O)n2CCO | 29.3 | – | –
14 | 5.11 | Nc1nc(Nc2ccccc2)nc2[nH]c(=O)c(-c3c(Br)cccc3Br)cc12 | 166 | – | –
15 | 7.57 | O=C1Nc2nc(Nc3ccccc3)[nH]c(=O)c2CC1c1c(F)cccc1F (configuration not stated) | 5.3 | 196 | –
16 | 4.91 | CCCOCCNc1nc(Nc2ccccc2)nc2c1CC(c1c(Cl)cccc1Cl)C(=O)N2 (configuration not stated) | 50.5 | – | –
17 | 6.64 | Cn1c(=O)c(-c2c(Cl)cccc2Cl)cc2cnc(Nc3ccccc3)nc21 | 0.9 | – | –

Row | pEC50 [1] | SMILES | CC50 at 4 h [2] [µM] | selectivity ratio [3] | pEC50 [4]
18 | 4.78 | Cn1c(=O)c(-c2c(Cl)cccc2Cl)cc2c(N)nc(N)nc21 | 120 | – | –
19 | 4.76 | Nc1nc(Nc2ccccc2)nc2[nH]c(=O)c(-c3c(F)cccc3F)cc12 | 2.4 | – | –
20 | 4.73 | O=C1Nc2nc(Oc3ccccc3)nc(On3nnc4ccccc43)c2CC1c1ccc(F)cc1 (configuration not stated) | 62.7 | – | –
21 | 4.68 | CCCCCNc1nc(N)nc2c1cc(-c1ccc(F)cc1)c(=O)n2C | 79.8 | – | –
22 | 6.66 | CC(C)Cn1c(=O)c(-c2c(Cl)cccc2Cl)cc2c(N)nc(Nc3ccccc3)nc21 | 185 | – | –
23 | 4.92 | CCCCn1c(=O)c(-c2c(Cl)cccc2Cl)cc2c(N)nc(Nc3ccccc3)nc21 | – | – | –
24 | 5.48 | CCCOCCNc1nc(Oc2ccccc2)nc2[nH]c(=O)c(-c3ccc(F)cc3)cc12 | 79.8 | – | –
25 | 5.33 | CCCOCCNc1nc(N)nc2c1cc(-c1ccc(F)cc1)c(=O)n2C | 54.3 | – | –
26 | 5.87 | O=C1Nc2nc(Nc3ccccc3)nc(On3nnc4ccccc43)c2CC1c1ccc(Cl)cc1Cl (configuration not stated) | 5.5 | – | –
27 | 6.00 | COCCn1c(=O)c(-c2c(Cl)cccc2Cl)cc2c(N)nc(Nc3ccccc3)nc21 | 241 | – | –
28 | 5.29 | CCCOCCNc1nc(Nc2ccccc2)nc2c1cc(-c1c(Cl)cccc1Cl)c(=O)n2C | 84.7 | – | –
29 | 4.95 | CSc1nc2c(c(=O)[nH]1)CC(Cc1ccccc1)C(=O)N2 (configuration not stated) | 38.3 | – | –
30 | 6.05 | Cn1c(=O)c(-c2ccccc2)cc2c(N)nc(Nc3ccccc3)nc21 | 23.5 | – | –
31 | – | CC(C)OC(=O)[C@H](C)NP(=O)(OC[C@H]1O[C@@H](n2ccc(=O)[nH]c2=O)[C@](C)(F)[C@@H]1O)Oc1ccccc1 (some centres not stated) | – | – | 7.32
32 | 5.68 | CCCOCCNc1nc(N)nc2[nH]c(=O)c(-c3ccc(F)cc3)cc12 | 130 | – | –
33 | 5.20 | CCn1c(=O)c(-c2c(Cl)cccc2Cl)cc2c(N)nc(Nc3ccccc3)nc21 | – | – | –
34 | 5.55 | Cn1c(=O)c(-c2c(F)cccc2C(F)(F)F)cc2c(N)nc(Nc3ccccc3)nc21 | 6.3 | – | –

Source: ChEMBL document CHEMBL3792304 (Eur J Med Chem, 2016)
